# Source: patent US10441593B2, “Treatment of pain associated with dislocation of endometrium” (PREGLEM S.A., priority 2010, dated 2019)
# Where “and” joins values, the source holds several entries; their conditions need not be identical. Equal values may be shown once.
# Tested on: patients with heavy menstrual bleeding and pain who had adenomyosis
# Test: Clinical study: 13 weeks oral 5 mg or 10 mg ulipristal in patients with adenomyosis (Example 1)
# Format: in vivo, human
# Experimental: A double-blinded, randomized, placebo-controlled study evaluating the effect of long term (13 weeks) oral administration of 5 mg or 10 mg ulipristal in patients with heavy menstrual bleeding and pain included 5 patients who had adenomyosis.
# These patients included women 36 years of age or older diagnosed by MRI with adenomyosis but no evidence of uterine fibroid.
# The patients were randomized as follows: 1 patient received a daily placebo treatment (matching Esmya tablet appearance) and iron 80 mg/day, 2 patients received a daily dose of 5 mg ulipristal (Esmya®) and iron 80 mg/day and 2 patients received a daily dose of 10 mg ulipristal (Esmya®) and iron 80 mg/day for 13 weeks.
# Different parameters were assessed before treatment (Baseline) and after the end of treatment (13 weeks): • The PBAC score (Pictorial Blood Loss Assessment Chart) gives an estimation of the menstrual blood loss. This score was measured before treatment and continuing up to week 13 of treatment. Normal menstrual bleeding score is <75. Abnormal bleeding (menorrhagia) is characterized by a PBAC score >100. Higher the score, worse is the bleeding. • The Uterine volume was estimated before treatment (Baseline Uterine volume) and the % change in uterine volume was reported at the end of the treatment (week 13). • The SF-M P QPart A (short form of the Mc Gill Pain questionnaire) was used as a measure of the sensory, affective and intensity dimensions of pain. The pain was estimated before treatment and the change was reported at the end of the treatment (week 13). (NOTE: The lowest is the score, the better it is). • The SF-MPQ Part B (short form of the Mc Gill Pain questionnaire) wherein the pain is assessed with a visual analogue scale (VAS) before treatment and the change was reported at the end of the treatment (week 13). (NOTE: The lowest is the score, the better it is). • Discomfort questionnaire (disease specific quality of life questionnaire) estimating the quality of life before treatment and the change was reported at the end of the treatment (week 13). (NOTE: The lowest is the score, the better it is). • The level of Hb (Hemoglobin) was measured before treatment and at the end of the treatment. (NOTE: the higher it is, the better it is.) 3. Results
# [1] = 5 mg/day + iron 80 mg/day, 13 weeks, patient 130/1368, adenomyosis
# [2] = 5 mg/day + iron 80 mg/day, 13 weeks, patient 142/1036, adenomyosis
# [3] = 10 mg/day + iron 80 mg/day, 13 weeks, patient 148/1427, adenomyosis
# [4] = 10 mg/day + iron 80 mg/day, 13 weeks, patient 154/1240, adenomyosis
# [5] = daily dose of 5 mg or 10 mg, examples 1 and 2
smiles,measurement,setting,value
"CC(=O)O[C@]1(C(C)=O)CC[C@H]2[C@@H]3CCC4=CC(=O)CCC4=C3[C@@H](c3ccc(N(C)C)cc3)C[C@@]21C [Ulipristal, 17α-acetoxy-11β-[4-N,N-dimethylamino-phenyl)-19-norpregna-4,9-diene-3,20-dione]",% change in uterine volume at week 13,[1],−21.5%
same,Change in PBAC,[1],−232
same,Discomfort questionnaire Change at Week 13,[1],−5
same,Hb at Week 13,[1],13.5 g/dL
same,PBAC at week 13,[1],0
same,SF-MPQ Part A Change at Week 13,[1],−5
same,SF-MPQ Part B (VAS) Change at Week 13,[1],−7
same,% change in uterine volume at week 13,[2],+0.4%
same,Change in PBAC,[2],−994
same,Discomfort questionnaire Change at Week 13,[2],−9
same,Hb at Week 13,[2],14 g/dL
same,PBAC at week 13,[2],0
same,SF-MPQ Part A Change at Week 13,[2],0
same,SF-MPQ Part B (VAS) Change at Week 13,[2],−6
same,"pain at 10 mg, both patients","10 mg, both patients, adenomyosis",Very substantial improvement in pain
same,"pain at 10 mg, one of the patients","10 mg, one of the two patients, adenomyosis",complete absence of pain
same,% change in uterine volume at week 13,[3],36.4%
same,Change in PBAC,[3],−624
same,Discomfort questionnaire Change at Week 13,[3],−20
same,Hb at Week 13,[3],13.6 g/dL
same,PBAC at week 13,[3],0
same,SF-MPQ Part A Change at Week 13,[3],−2
same,SF-MPQ Part B (VAS) Change at Week 13,[3],−43
same,% change in uterine volume at week 13,[4],−32.0%
same,Change in PBAC,[4],−536
same,Discomfort questionnaire Change at Week 13,[4],−12
same,Hb at Week 13,[4],12.1 g/dL
same,PBAC at week 13,[4],0
same,SF-MPQ Part A Change at Week 13,[4],−14
same,SF-MPQ Part B (VAS) Change at Week 13,[4],−93
same,PBAC score at the end of treatment (week 13),"all 4 patients treated with 5 mg or 10 mg, adenomyosis",0
same,pain as measured with the SF-MPQ Part B (VAS) compared to the placebo treated patient,"all four patients, 5 mg or 10 mg, 13 weeks, adenomyosis",improvements in pain
same,quality of life compared to the placebo treated patient,"all four patients, 5 mg or 10 mg, adenomyosis",substantial improvement in the quality of life
same,Hb at the end of the treatment,"all four patients, 5 mg or 10 mg, concomitant iron 80 mg once daily",increase in Hb
same,PBAC score at the end of the treatment,[5],amenorrhea
same,uterine volume at the end of treatment,[5],decrease in uterine volume
same,levels of Hb during the treatment,"daily dose of 5 mg or 10 mg, with or without concomitant iron",increased
same,% change in uterine volume at week 13,"individual ulipristal treated patients (5 mg or 10 mg), adenomyosis",+36.4% and +0.4% and −21.5% and −32%
same,"pain relief, 10 mg compared to 5 mg","patients treated at 10 mg vs patients that received 5 mg, adenomyosis",better pain relief
